Laboratory results taken from ChEMBL document CHEMBL4261528, “Synthesis, molecular modeling and biological evaluation of aza-flavanones as α-glucosidase inhibitors” (Medchemcomm, 2017).
pIC50: −log10 of the molar value.

Assay: Inhibition of baker's yeast alpha-glucosidase preincubated for 15 to 20 mins followed by p-nitrophenyl-alpha-D-glucopyranoside substrate addition measured after 45 to 60 mins by spectrophotometric method
Set-up: species or system Saccharomyces cerevisiae
Conditions: not given
For `O=C1CC(c2ccc(Br)cc2)Nc2ccccc21` (configuration not stated), the IC50 was “Nd(Insoluble)”.

Same assay, conditions: read-out: IC50
Compound `O=C1CC(c2ccc(F)cc2F)Nc2ccccc21` (configuration not stated) has a pIC50 of 3.68. For `O=C1CC(c2ccoc2)Nc2ccccc21` (configuration not stated), the pIC50 was 3.45. `O=C1CC(C2CCOC2)Nc2ccccc21` (configuration not stated) showed a pIC50 of 3.06. Compound `CCCCC1CC(=O)c2cc(OC)ccc2N1` (configuration not stated) has a pIC50 of 3.17. Compound `O=C1CC(c2ccccc2)Nc2ccccc21` (configuration not stated) [Aza-flavanone] has a pIC50 of 3.16. Work on `COc1ccc(C2CC(=O)c3ccccc3N2)cc1` (configuration not stated) yielded a pIC50 of 3.52. Work on `Cc1ccc(C2CC(=O)c3ccccc3N2)cc1C` (configuration not stated) yielded a pIC50 of 3.22. Work on `O=C1CC(C2CC2)Nc2ccccc21` (configuration not stated) yielded a pIC50 of 3.55. Work on `CCCC1CC(=O)c2ccccc2N1` (configuration not stated) yielded a pIC50 of 3.72. For `OCC(CO)N[C@H]1C[C@](O)(CO)[C@@H](O)[C@H](O)[C@H]1O` [VOGLIBOSE], the pIC50 was 3.49. With `O=C1CC(c2ccco2)Nc2ccccc21` (configuration not stated) the pIC50 was 3.31. Compound `CCC1CC(=O)c2ccccc2N1` (configuration not stated) has a pIC50 of 3.57. `O=C1CC(C2CCCCC2)Nc2ccccc21` (configuration not stated) showed a pIC50 of 3.31. Work on `CCCCC1CC(=O)c2ccc(F)cc2N1` (configuration not stated) yielded a pIC50 of 3.87. In the case of `O=C1CC(c2cccs2)Nc2ccccc21` (configuration not stated), the pIC50 was 3.42. In the case of `OCCN1C[C@H](O)[C@@H](O)[C@H](O)[C@H]1CO` [MIGLITOL], the pIC50 was 3.34. In the case of `O=C1CC(c2ccncc2)Nc2ccccc21` (configuration not stated), the pIC50 was 3.11. With `O=C1CC(C2CCCO2)Nc2ccccc21` (configuration not stated) the pIC50 was 3.18. `C[C@H]1O[C@H](O[C@H]2[C@H](O)[C@@H](O)[C@@H](O[C@H]3[C@H](O)[C@@H](O)C(O)O[C@@H]3CO)O[C@@H]2CO)[C@H](O)[C@@H](O)[C@@H]1N[C@H]1C=C(CO)[C@@H](O)[C@H](O)[C@H]1O` (some centres not stated) [ACARBOSE] gave a pIC50 of 3.44. For `O=C1CC(c2ccc(C(F)(F)F)cc2)Nc2ccccc21` (configuration not stated), the pIC50 was 4.27. `O=C1CC(c2ccsc2)Nc2ccccc21` (configuration not stated) showed a pIC50 of 4.14.
